Columns and labels:
[1] = tested on: PC-3 prostate cancer cells; test: MTT cytotoxicity assay, PC-3; conditions: for IC50: Homo sapiens, 48 h, read-out: IC50 PC-3; for selectivity index (SI) for PC-3: ratio of IC50 values, PC-3 and ME-16C
Description: (§1) In this work, cells were treated with the compounds at concentrations ranging from 1 to 1000 M for 48 h in order to evaluate the in vitro cytotoxic effects on cancer (MCF-7, PC-3) and normal (ME-16C) cell lines.
(§2) Human breast cancer (MCF-7; ATCC Number: HTB-22), prostate cancer (PC-3; ATCC Number: CRL-1435), and breast epithelial (ME-16C; ATCC Number: CRL: 4101) cell lines were procured from American Type Culture Collection (ATCC Distributor: LGC Standards, Wessel, Germany) to be used in the cytotoxic activity assays. Cells were detached with a 0.25% Trypsin/EDTA solution upon 70–80% confluency and seeded into a new culture flask including DMEM-LG with 10% FBS and 0.1 mg/mL primocin, incubated in a 37 °C, 5% CO2 incubator. The medium was refreshed every 48 h, and the cells were passaged every 5–6 days.
(§3) Newly synthesized compounds were tested for their cytotoxic activity on cancer (MCF-7, PC-3) and normal (ME-16C) cell lines using the MTT assay. MTT is used to assess cell viability by determining the mitochondrial activity of living cells according to their ability to reduce the yellow tetrazolium salt MTT into purple formazan crystals. The MTT assay (Thermo) was carried out according to the manufacturer’s instructions. Briefly, cells were seeded on 96-well plates at a density of 1 × 10^4 cells/well and incubated in a 37 °C, 5% CO2 incubator. Cells were then treated with different concentrations (1–1000 μM) of compounds for 48 h. Following incubation, 10 μL of MTT solution was added to the cells and incubated for 4 h, and then 100 μL of solubilization solution was added and incubated overnight. Absorbance was measured at 570 nm using the microplate reader (Synergy H1, Biotek). […] All the experiments were performed three times, and each was carried out in triplicate.

[2] = tested on: MCF-7 breast cancer cells; test: MTT cytotoxicity assay, MCF-7; conditions: for IC50: Homo sapiens, MCF7, 48 h, read-out: IC50 MCF-7; for selectivity index (SI) for MCF-7: ratio of IC50 values, MCF-7 and ME-16C
Description: as §1, §2, §3

[3] = tested on: ME-16C breast epithelial cells; test: MTT cytotoxicity assay, ME-16C normal cells; conditions: for cytotoxic effect in ME-16C cells: in the tested range of concentrations; for IC50: read-out: IC50 ME-16C, normal breast epithelial cells, MTT, 48 h, 1–1000 μM
Description: as §1, §2, §3

| Structure (SMILES) | melting point [°C] | IC50 [1] [µM] | IC50 [2] [µM] | cytotoxic effect in ME-16C cells [3] | selectivity index (SI) for PC-3 [1] | selectivity index (SI) for MCF-7 [2] | IC50 [3] [µM] | cytotoxic effect on ME-16C cells ([3]; at the same concentration as the IC50 in cancer cells) |
| --- | --- | --- | --- | --- | --- | --- | --- | --- |
| COc1ccc(C(=O)CCCC(=O)NN=Cc2ccco2)cc1 [Compound 8d] | 144 to 145 | 454.7 ± 2.31 | 510.2 ± 2.88 | did not cause any cytotoxic effect |  |  |  |  |
| O=C(CCCC(=O)c1ccc(Cl)cc1)NN=Cc1ccco1 [Compound 8b] | 132 to 133 | 52 ± 0.88 | 50.8 ± 0.63 | did not cause any cytotoxic effect |  |  |  |  |
| Cc1ccc(C(=O)CCCC(=O)NN=CCC(C)C)cc1 [Compound 9c] |  | 106 ± 3.7 | 95.02 ± 0.76 |  |  |  |  |  |
| O=C(CCCC(=O)c1cccs1)NN=Cc1ccco1 [Compound 8e] | 121 to 122 | 500.5 ± 2.83 | 490.7 ± 3.49 | did not cause any cytotoxic effect |  |  |  |  |
| COc1ccc(C=NNC(=O)CCCC(=O)c2cccs2)cc1 [Compound 7e] | 130 to 131 | 10.8 ± 0.71 | 12.5 ± 0.84 |  | 62.18 | 53.60 | 672.2 ± 2.69 |  |
| O=C(CCCC(=O)c1ccccc1)NN=Cc1ccco1 [Compound 8a] | 119 to 120 | 26.6 ± 0.92 | 11 ± 1.21 |  |  |  | 471.8 ± 2.98 |  |
| COc1ccc(C=NNC(=O)CCCC(=O)c2ccc(C)cc2)cc1 [Compound 7c] | 133 to 134 | 12.6 ± 0.67 | 9.25 ± 0.54 |  |  |  | 227.7 ± 1.76 |  |
| COc1cccc2c1C(=O)c1c(O)c3c(c(O)c1C2=O)C[C@@](O)(C(=O)CO)C[C@@H]3O[C@H]1C[C@H](N)[C@H](O)[C@H](C)O1 [doxorubicin, reference compound] |  | 0.75 ± 0.04 | 0.83 ± 0.07 |  |  |  | 0.8 ± 0.09 |  |
| COc1ccc(C=NNC(=O)CCCC(=O)c2ccc(OC)cc2)cc1 [Compound 7d] | 154 to 155 | 10.2 ± 0.52 | 7.52 ± 0.32 |  | 24.57 | 33.30 | 250.4 ± 1.88 | no cytotoxic effect |
| CC(C)CC=NNC(=O)CCCC(=O)c1ccc(Cl)cc1 [Compound 9b] |  | 276 ± 5.9 | 210 ± 3.14 |  |  |  |  |  |
| CC(C)CC=NNC(=O)CCCC(=O)c1cccs1 [Compound 9e] |  | 125.5 ± 1.1 | 100 ± 1.39 |  |  |  |  |  |
| COc1ccc(C(=O)CCCC(=O)NN=CCC(C)C)cc1 [Compound 9d] |  | 152.1 ± 0.75 | 116 ± 2.7 |  |  |  |  |  |
| COc1ccc(C=NNC(=O)CCCC(=O)c2ccc(Cl)cc2)cc1 [Compound 7b] | 121 to 122.5 | 15 ± 0.4 | 10.3 ± 0.63 |  |  |  | 158 ± 1.9 |  |
| COc1ccc(/C=N/NC(=O)CCCC(=O)c2ccccc2)cc1 [Compound 7a] | 199 to 200 | 57.3 ± 0.92 | 25.4 ± 0.82 |  |  |  | 545.3 ± 0.75 |  |
| Cc1ccc(C(=O)CCCC(=O)NN=Cc2ccco2)cc1 [Compound 8c] | 133.5 to 134.5 | 510.1 ± 1.1 | 471.5 ± 0.57 |  |  |  | 480.5 ± 2.05 |  |
| CC(C)CC=NNC(=O)CCCC(=O)c1ccccc1 [Compound 9a] |  |  | 120 ± 1.87 |  |  |  |  |  |
